Measurements as given in publication PMC12040169 (PLOS Biology, 2025).

Assay: in vitro
Conditions: human, hela cells, % viability

Row | SMILES | viability at 28.5 h, 10 µM [%]
1 | CC1=C(C(=O)OC(C)C)C(c2cccc(I)c2)C2=C(CCCC2=O)N1 (stereo not drawn) [CBK026317] | 86.5
2 | OC1CCCCC1C1(NC(=S)Nc2ccccc2)CCCCC1 (stereo not drawn) [CBK026324] | 97.9
3 | S=c1[nH]nc(Nc2ccccc2)n1-c1ccccc1 [CBK026332] | 123
4 | Oc1cccnc1CCc1ccccc1 [CBK026334C] | 100
5 | C(=N\Nc1nc2ccccc2[nH]1)/c1cccnc1 [CBK026357] | 115
6 | NC(=O)CS(=O)(=O)c1ccc(Cl)cc1 [CBK026373] | 95.7
7 | O=C(O)CSc1c[nH]c2ccccc12 [CBK026377] | 93.9
8 | O=C(Nc1nc2ccc(Br)cc2s1)C1CC2CCC1C2 (stereo not drawn) [CBK026397] | 88.8
9 | Clc1ccc(-c2noc(-c3ccco3)n2)cc1 [CBK026405] | 86
10 | O=C(O)c1nc2n(n1)C(C(F)(F)F)CC(c1cccs1)N2 (stereo not drawn) [CBK026415] | 97
11 | CS(=O)(=O)N/N=C/c1ccc(Cl)cc1Cl [CBK026420] | 105
12 | CS(=O)(=O)N/N=C/c1cccc(Br)c1 [CBK026427] | 92.5
13 | Cc1ccsc1CN1CCOCC1 [CBK026429] | 110
14 | NC(=O)N/N=C/c1cc(Br)cs1 [CBK026434] | 81.8
15 | CC(=O)NCC1OCCc2ccccc21 (stereo not drawn) [CBK026449] | 98.4
16 | CCC1=NC(c2ccccc2Cl)N(O)C1(C)C (stereo not drawn) [CBK026466] | 97.5
17 | CC1CN(c2ccccc2Br)NC1=O (stereo not drawn) [CBK026500] | 96.7
18 | O=S(=O)(O)CCCSc1nc2ccccc2o1 [CBK026507N] | 97.2
19 | Brc1ccc(-c2nnco2)cc1 [CBK026512] | 84.3
20 | CCn1c(=O)sc2cc(Br)ccc21 [CBK026526] | 97
21 | CSc1nc2c(cc1C#N)CCC2 [CBK026532] | 108
22 | CCc1nc(C)ccc1O [CBK026535C] | 91
23 | CN1CCC(=NNC(=O)CSCc2ccccc2Br)CC1 [CBK026542] | 104
24 | Cc1ccc(NC(=O)OCC(F)(F)C(F)F)cc1Cl [CBK026548] | 93.1
25 | O=[N+]([O-])c1ccc(CN2CCN(C/C=C/c3ccccc3)CC2)o1 [CBK026551] | 85.1
26 | O=C(CSc1nc(=O)cc(O)[nH]1)c1ccccc1 [CBK026570] | 96.7
27 | CC(SCCc1ccccn1)C(=O)O (stereo not drawn) [CBK026572] | 109

Row | SMILES | viability at 28.5 h, 10 µM [%]
28 | CCCCCc1nc(N)c(-c2cccc(Br)c2)c(C#N)c1CCCC [CBK026574] | 118
29 | Cc1ccc(C(C)C)c(OCC(O)CNC(C)C)c1 (stereo not drawn) [CBK026604C] | 111
30 | CC(Sc1ccccc1)C(=O)NC(C)(C)C (stereo not drawn) [CBK026610] | 116
31 | CC1CCCC(C)N1C(=O)C1CCCCC1C(=O)O (stereo not drawn) [CBK026624] | 93.2
32 | C=C(C)Cn1c(SCCC(=O)OC)nc2sc3c(c2c1=O)CC(C)(C)OC3 [CBK026634] | 59.9
33 | CC(=O)Nc1nc(NC(C)=O)n2c(-c3ccccc3)nnc2n1 [CBK026649] | 93.7
34 | CC1CN(C(=O)NC2CCCCC2)C(c2ccccc2)ON1C (stereo not drawn) [CBK026650] | 109
35 | CCc1nnc(NS(=O)(=O)c2ccc(OC(F)(F)F)cc2)s1 [CBK026672] | 91.7
36 | Cc1nnc(NS(=O)(=O)c2ccc(OC(F)(F)F)cc2)s1 [CBK026673] | 95.9
37 | COC(=O)c1c(NS(=O)(=O)c2cccc(Cl)c2)csc1C [CBK026678] | 79.6
38 | COC(=O)c1scc(NS(=O)(=O)c2cccc(C(F)(F)F)c2)c1C(=O)OC [CBK026680] | 94.9
39 | CC(C)Cc1csc2nc(-c3ccc(Br)cc3)oc(=O)c12 [CBK026692] | 96.7
40 | S=c1nc(-c2ccccc2)n2cc(Br)ccc2n1 [CBK026696] | 111
41 | O=C(CCOc1ccccc1)Nc1cncc(OC2CCNCC2)n1 [CBK026734T] | 95.2
42 | CSc1nc(NC(=O)C(C)c2ccccc2)cc(N2CCNCC2)n1 (stereo not drawn) [CBK026742T] | 91.2
43 | C[C@@H]1CNCCN1c1cc(C(F)(F)F)cc(OCc2ccccc2)n1 [CBK026755] | 79.1
44 | COc1ccccc1CN(CC(C)(C)CN)C(=O)Nc1ccc(C)c([N+](=O)[O-])c1 [CBK026816C] | 98.8
45 | CC(C)(CN)CN(Cc1ccccc1C(F)(F)F)C(=O)Nc1c(F)cccc1F [CBK026822C] | 109
46 | CC(C)(CN)CN(Cc1ccccc1C(F)(F)F)C(=O)Nc1ccc(C(C)(C)C)cc1 [CBK026828C] | 92.4
47 | Cc1ccc(SCS(=O)(=O)c2ccc(C)cc2)cc1 [CBK026853] | 97.8
48 | Clc1ccccc1CSc1nc[nH]n1 [CBK026950] | 98.5
49 | CCCCSc1nnc(-c2ccc(Br)cc2)o1 [CBK027012] | 117
50 | O=C(CSc1ncn(-c2ccccc2)n1)c1ccc(Br)cc1 [CBK027014] | 91.6
51 | c1ccc2sc(-n3cncn3)nc2c1 [CBK027022] | 92.2
52 | CCN(CC(=O)N1CCN(C(=O)c2ccc(C)cc2)CC1)C(=O)OC [CBK027051] | 82
53 | CC(=O)Nc1cccc2c1NSN2 [CBK027082] | 92.1
54 | CCCCNC(=O)NC1CCCC1 [CBK027084] | 101

Row | SMILES | viability at 28.5 h, 10 µM [%]
55 | CC(NC(=O)C1CC=CCC1C(=O)O)C1CC2CCC1C2 (stereo not drawn) [CBK027112] | 114
56 | COc1cccc(OCC(O)CN(C)S(=O)(=O)O)c1 (stereo not drawn) [CBK027121N] | 89.9
57 | CNCCc1ccccc1Sc1ccccc1 [CBK027155G] | 102
58 | CCOC(=O)N1N=C(c2ccc(F)cc2)CC1(O)C(F)(F)F (stereo not drawn) [CBK027156] | 111
59 | CCCCCC1=NN(C(=O)c2ccccc2Br)C(O)(C(F)(F)F)C1 (stereo not drawn) [CBK027223] | 104
60 | C1=CC2CC1CC2CN1CCN(Cc2cccnc2)CC1 (stereo not drawn) [CBK027284] | 100
61 | COc1nc(NCCN2CCOCC2)nc(Nc2ccccc2)n1 [CBK027298] | 102
62 | CC1=CC(C)C(C(=O)O)C(C(=O)N2CCN(C)CC2)C1 (stereo not drawn) [CBK027311G] | 97.7
63 | CC(=O)Nc1nnn(CCOc2nonc2C)n1 [CBK027320] | 90.2
64 | COc1ccc(CN2CCOCC2)cc1Br [CBK027346] | 80.8
65 | CCC1(C)CC(C(CCN)c2ccc(C)cc2)CCO1 (stereo not drawn) [CBK027350] | 98.8
66 | CCCCC1CCC(c2noc(-c3ccc(F)cc3)n2)CC1 (stereo not drawn) [CBK027363] | 90.3
67 | Cc1cc(Nc2ccc(I)cc2)n2ncnc2n1 [CBK027364] | 100
68 | OCCN1CCN(CC(O)COCC2COc3ccccc3O2)CC1 (stereo not drawn) [CBK027374C] | 97.3
69 | Cn1c(=O)oc2cc(Br)ccc21 [CBK027375] | 108
70 | Cc1cc(=O)n(C)c(=O)n1CCCCCN1CCCC1 [CBK027386] | 99.9
71 | Cc1cc(C)n2c(SCC(=O)O)nnc2n1 [CBK027406] | 108
72 | Clc1nc(NCCN2CCOCC2)nc(N2CCCCCC2)n1 [CBK027412] | 98.9
73 | CC(C)Nc1nc(C#N)nc(NC(C)C)n1 [CBK027421] | 84.7
74 | CCCCC1CCC(C(=O)Nc2ncccn2)CC1 (stereo not drawn) [CBK027423] | 113
75 | Clc1ccc(C2NCCS2)c(Cl)c1 (stereo not drawn) [CBK027425] | 102
76 | COC(=O)Nc1nc(Cl)cc(Cl)n1 [CBK027433] | 93.8
77 | CN(C)CCCOC(=O)c1cccnc1Cl [CBK027436] | 111
78 | Cn1c(=O)c(C(N)=O)c(O)c2ccccc21 [CBK027440] | 78.6
79 | CCOc1ccc(CSC2=NCCN2)cc1Cl [CBK027449C] | 92.4
80 | COc1nc(NCc2ccco2)nc(OC)n1 [CBK027479] | 86.4
81 | CN(CCOC(=O)c1cccs1)C(C)(C)C [CBK027559C] | 88.6

Row | SMILES | viability at 28.5 h, 10 µM [%]
82 | O=C(Nc1ncccn1)C1CCCCC1 [CBK027567] | 98.3
83 | O=C(NCCO)Nc1ccc2nccnc2c1 [CBK027577] | 71.5
84 | CC1(C)CC(=O)C=C(NCC2CCNCC2)C1 [CBK027580] | 87.9
85 | Cc1cc(=O)n(C)c(=O)n1CCCN1CCCCC1 [CBK027584] | 115
86 | CCCCSc1nnc2nc(C)cc(C)n12 [CBK027588] | 98.2
87 | Fc1ccc(-n2cnnn2)cc1 [CBK027592] | 110
88 | O=C(Nn1cnnc1)c1ccccc1F [CBK027603] | 106
89 | Cn1c(=O)c2[nH]c(N3CCCCC3)nc2n(C)c1=O [CBK027630] | 86.1
90 | OCCCNCC(O)CN1c2ccccc2Sc2ccccc21 (stereo not drawn) [CBK027632G] | 98.4
91 | [O-][S+]1c2ccccc2Oc2ccccc21 [CBK027634] | 94.7
92 | CCOC(=O)c1c(-n2cnnn2)sc(C)c1C [CBK027660] | 93.6
93 | Clc1cccc(-n2cnnn2)c1Cl [CBK027665] | 77.7
94 | CC(C)Nc1nc(Cl)nc(Nc2ccc(I)cc2)n1 [CBK027685] | 97.6
95 | Nc1nonc1OCCCCOc1nonc1N [CBK027716] | 110
96 | O=c1[nH]c(=O)c2c3c(sc2[nH]1)CCCC3 [CBK027724] | 67.6
97 | CCOC(=O)c1[nH]c(=O)[nH]c1CSc1ccccn1 [CBK027725] | 94
98 | Cc1nnc2nc(-c3ccc(Cl)cc3Cl)[nH]n12 [CBK027731] | 88.1
99 | CC(C)Nc1nc(NC(C)C)nc(N(C)C(N)=O)n1 [CBK027732] | 90.2
100 | CCNc1nc(C#N)nc(Nc2ccccc2)n1 [CBK027733] | 86.1
101 | c1ccc(CSc2nc3ccccc3s2)nc1 [CBK027737] | 76.2
102 | COC(=O)NC(O)C(=O)c1cccs1 (stereo not drawn) [CBK027755] | 93.8
103 | COC(=O)NC(O)C(=O)c1ccco1 (stereo not drawn) [CBK027757] | 94.7
104 | O=c1[nH]nc(SCc2ccccc2Cl)c(=S)[nH]1 [CBK027795] | 117
105 | Cc1cc(=O)n2c(c1C#N)SCC2 [CBK027807] | 102
